Data taken from US20050059669A1, “M-substituted benzoic acid derivatives having integrin alpha v beta 3 antagonistic activity” (priority 1999, published 2005).
Each block holds one molecule with its values, some of them ahead of it.

Columns and labels:
[1] = molecular target: T1, integrin αvβ3 (vitronectin receptor purified from the human placenta) (Homo sapiens, UniProt P05106+P06756); assay: αvβ3 binding assay (vitronectin-vitronectin receptor binding assay); settings: vitronectin binding to coated human placenta vitronectin receptor; read-out: integrin αvβ3 antagonistic activity (IC50)
T1 construct: a vitronectin receptor (protein content: 118 mg/ml) purified from the human placenta; from tissue; host or cells: human placenta
Protocol: Integrin αvβ3 antagonistic activity was first measured in a vitronectin-vitronectin receptor binding assay system in accordance with the method of Kouns et al. (W. C. Kouns, D. Kirchhofer, P. Hadvary, A. Edenhofer, T. Weller, G. Pfenninger, H. R. Baumgartner, L. K. Jennings and B. Steiner, Blood, 80, 2539-2547 (1992)). […] A 0.1 M citric acid buffer (pH 4.3) containing 0.05% NaN3 was added in an amount of 50 μl/well to stop the reaction, followed by the measurement of the absorbance at 415 nm with a microplate reader (MTP 32, Corona Electric) (reference: 675 nm). The total binding was defined as the absorbance after a reaction using 50 μl of TBS-Tween instead of the test compound, and the non-specific binding (100% inhibition) was defined as the absorbance after a reaction using 50 μl of TBS-Tween containing 2×10^−3 M RGDS. The inhibition was calculated by the following equation: [formula]
IC50 was determined from a primary regression line of the logarithm of each concentration of the test compound and the logarithm of (100−inhibition)/inhibition.

GP IIb/IIIa = GP IIb/IIIa (Homo sapiens, UniProt P05106+P08514); assay: GP IIb/IIIa antagonistic activity (method of Pharmacological Test 2 in WO 94/21599); format: binding
Protocol: GP IIb/IIIa antagonistic activity was measured for the compounds according to the present invention. The measurement of the GP IIb/IIIa antagonistic activity was carried out according to the method described in Pharmacological Test 2 in WO 94/21599. As a result, both the compounds prepared in Examples 3 and 6 had significant GP IIb/IIIa antagonistic activity. In particular, the IC50 value of the compound prepared in Example 3 was 2.0 nM.

[2] = test system: human vascular smooth muscle cells; assay: Inhibitory activity against adhesion of human vascular smooth muscle cells to vitronectin; format: cell-based
Protocol: The adhesion of human vascular smooth muscle cells to immobilized human vitronectin was measured in accordance with the method of Liaw et al. (Liaw L, Almeida M, Hart C E, Schwartz S M, and Giachelli C M, Circulation Research, 74 (2), 214-224 (1994)).
A Dulbecco's phosphate buffer (Dulbecco's PBS(−), Nissui Pharmaceutical Co., Ltd.) solution of human plasma-derived vitronectin (CALBIOCHEM) adjusted to a concentration of 4 μg/ml was first added to wells (50 μl/well) of a microplate (Maxisorp, Nunc), and a reaction for immobilization was allowed to proceed at 4° C. overnight. After washing twice with 150 μl of Dulbecco's phosphate buffer, a Dulbecco's phosphate buffer containing 10 mg/ml of bovine serum albumin (SIGMA) was added, followed by blocking at 37° C. for one hr. […]
Next, 50 μl of a Dulbecco's modified Eagle's basal medium containing 0.1% of bovine serum albumin with a medicament added thereto was added to the wells of the human vitronectin-coated assay microplate, followed by pre-cultivation under 5% carbon dioxide at 37° C. for 10 min. […] The absorbance of the microplate thus obtained was measured at 595 nm. […] The inhibition was calculated by the following equation. IC50 was determined from a primary regression line of the logarithm of each concentration of the test compound and the logarithm of (100−inhibition)/inhibition. […]

GP IIb/IIIa, sequence (P08514 32-887 limits assumed): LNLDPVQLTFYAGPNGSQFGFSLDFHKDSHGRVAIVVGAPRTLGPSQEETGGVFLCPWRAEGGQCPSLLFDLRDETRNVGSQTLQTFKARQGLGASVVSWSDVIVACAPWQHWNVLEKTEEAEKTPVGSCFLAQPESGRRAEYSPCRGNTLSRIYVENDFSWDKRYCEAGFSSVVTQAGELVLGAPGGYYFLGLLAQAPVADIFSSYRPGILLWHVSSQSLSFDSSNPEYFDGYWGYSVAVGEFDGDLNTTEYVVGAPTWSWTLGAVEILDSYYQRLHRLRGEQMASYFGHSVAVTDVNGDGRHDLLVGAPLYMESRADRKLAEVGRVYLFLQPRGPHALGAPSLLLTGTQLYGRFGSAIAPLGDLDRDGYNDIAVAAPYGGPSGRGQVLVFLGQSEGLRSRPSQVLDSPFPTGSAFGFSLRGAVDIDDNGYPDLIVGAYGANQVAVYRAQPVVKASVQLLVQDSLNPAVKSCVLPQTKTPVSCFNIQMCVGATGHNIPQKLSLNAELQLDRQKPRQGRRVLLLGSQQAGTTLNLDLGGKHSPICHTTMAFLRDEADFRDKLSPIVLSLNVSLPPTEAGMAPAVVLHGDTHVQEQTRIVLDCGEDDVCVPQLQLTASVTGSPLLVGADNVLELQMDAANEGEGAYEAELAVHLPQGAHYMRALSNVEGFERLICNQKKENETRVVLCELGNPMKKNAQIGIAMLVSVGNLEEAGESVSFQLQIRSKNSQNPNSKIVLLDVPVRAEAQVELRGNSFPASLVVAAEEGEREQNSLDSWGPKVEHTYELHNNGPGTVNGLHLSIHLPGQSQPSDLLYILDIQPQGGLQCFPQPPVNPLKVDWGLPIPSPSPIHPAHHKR
GP IIb/IIIa, sequence (P08514 891-1039 partner limits assumed): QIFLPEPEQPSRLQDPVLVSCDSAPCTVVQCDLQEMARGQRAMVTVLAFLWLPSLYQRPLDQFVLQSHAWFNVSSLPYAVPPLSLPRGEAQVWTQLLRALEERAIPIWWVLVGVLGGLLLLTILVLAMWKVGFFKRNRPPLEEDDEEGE
GP IIb/IIIa, sequence (P05106 27-788): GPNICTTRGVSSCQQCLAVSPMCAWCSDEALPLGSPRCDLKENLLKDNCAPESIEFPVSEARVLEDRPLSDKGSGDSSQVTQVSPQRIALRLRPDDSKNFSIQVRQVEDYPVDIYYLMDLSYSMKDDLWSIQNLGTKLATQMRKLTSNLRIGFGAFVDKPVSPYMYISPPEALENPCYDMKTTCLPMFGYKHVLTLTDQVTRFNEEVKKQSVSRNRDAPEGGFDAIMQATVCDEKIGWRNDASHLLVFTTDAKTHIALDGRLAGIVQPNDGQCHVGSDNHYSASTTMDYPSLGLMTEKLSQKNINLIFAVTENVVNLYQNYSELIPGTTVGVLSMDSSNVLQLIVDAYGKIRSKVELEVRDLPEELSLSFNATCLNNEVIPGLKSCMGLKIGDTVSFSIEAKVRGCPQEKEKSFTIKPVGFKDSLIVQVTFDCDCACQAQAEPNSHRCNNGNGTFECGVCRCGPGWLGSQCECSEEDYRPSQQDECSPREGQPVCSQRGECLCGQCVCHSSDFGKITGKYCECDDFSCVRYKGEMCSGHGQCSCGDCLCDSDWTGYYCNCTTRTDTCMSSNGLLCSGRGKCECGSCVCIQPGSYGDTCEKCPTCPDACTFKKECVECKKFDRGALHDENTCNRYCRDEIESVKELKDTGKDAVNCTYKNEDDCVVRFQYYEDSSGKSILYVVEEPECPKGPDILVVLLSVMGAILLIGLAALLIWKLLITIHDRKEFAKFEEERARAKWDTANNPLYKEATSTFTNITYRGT
T1 sequence (P06756 31-889 limits assumed): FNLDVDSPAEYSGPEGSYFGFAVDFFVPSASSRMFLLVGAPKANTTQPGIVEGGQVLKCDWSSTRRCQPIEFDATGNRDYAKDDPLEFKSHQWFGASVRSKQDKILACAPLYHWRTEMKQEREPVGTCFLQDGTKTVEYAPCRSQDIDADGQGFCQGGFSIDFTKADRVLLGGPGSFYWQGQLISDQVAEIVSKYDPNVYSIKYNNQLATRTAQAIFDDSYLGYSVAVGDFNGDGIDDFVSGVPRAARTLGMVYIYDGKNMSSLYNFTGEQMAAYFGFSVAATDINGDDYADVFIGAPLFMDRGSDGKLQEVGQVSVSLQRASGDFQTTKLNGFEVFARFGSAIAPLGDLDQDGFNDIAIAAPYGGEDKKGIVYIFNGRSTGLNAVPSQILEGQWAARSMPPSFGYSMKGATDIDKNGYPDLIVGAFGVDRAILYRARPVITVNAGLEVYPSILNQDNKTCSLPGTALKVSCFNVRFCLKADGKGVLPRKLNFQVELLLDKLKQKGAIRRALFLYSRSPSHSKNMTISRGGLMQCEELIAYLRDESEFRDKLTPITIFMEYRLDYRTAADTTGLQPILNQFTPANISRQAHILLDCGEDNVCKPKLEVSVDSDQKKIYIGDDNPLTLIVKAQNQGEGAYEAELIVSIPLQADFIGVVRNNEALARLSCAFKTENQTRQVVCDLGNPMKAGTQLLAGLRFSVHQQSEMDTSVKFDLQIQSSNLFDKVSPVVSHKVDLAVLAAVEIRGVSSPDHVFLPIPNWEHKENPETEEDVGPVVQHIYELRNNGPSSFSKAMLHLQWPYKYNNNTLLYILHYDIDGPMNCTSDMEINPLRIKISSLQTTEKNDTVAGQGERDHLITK
T1 sequence (P06756 891-1048 partner limits assumed): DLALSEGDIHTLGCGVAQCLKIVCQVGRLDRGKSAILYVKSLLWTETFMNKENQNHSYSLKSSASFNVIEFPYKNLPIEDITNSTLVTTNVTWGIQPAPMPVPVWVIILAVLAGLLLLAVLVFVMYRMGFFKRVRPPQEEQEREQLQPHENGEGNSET
T1 sequence (P05106 27-788): as the sequence (P05106 27-788) above

IC50 [1]: 1.3 nM
IC50 (GP IIb/IIIa): 2 nM
Structure (SMILES): O=C(NC[C@H](NS(=O)(=O)c1ccccc1)C(=O)O)c1cccc(N2CCN(C3=NCCCN3)CC2)c1 [Example 3, (2S)-Benzenesulfonylamino-3-[3-{4-(1,4,5,6-tetrahydropyrimidin-2-yl)piperazin-1-yl}benzoylamino]-propionic acid]

Structure (SMILES): O=C(NC[C@H](NS(=O)(=O)c1ccccc1)C(=O)O)c1cccc(N2CCC(NC3=NCCCN3)CC2)c1 [Example 6, (2S)-Benzenesulfonylamino-3-[3-{4-(1,4,5,6-tetrahydropyrimidin-2-ylamino)piperidin-1-yl}benzoylamino]propionic acid]
GP IIb/IIIa antagonistic activity (GP IIb/IIIa; result in words): significant

IC50 [1]: 2 nM
Structure (SMILES): O=C(NC[C@H](NS(=O)(=O)c1ccccc1)C(=O)O)c1ccc(F)c(N2CCC(NC3=NCCCN3)CC2)c1 [Example 9, (2S)-Benzenesulfonylamino-3-[4-fluoro-3-{4-(1,4,5,6-tetrahydropyrimidin-2-ylamino)piperidin-1-yl}-benzoylamino]propionic acid]

Structure (SMILES): O=C(NC[C@H](NS(=O)(=O)c1ccccc1)C(=O)O)c1cc(N2CCC(NC3=NCCCN3)CC2)cc(C(F)(F)F)c1 [Example 27, (2S)-Benzenesulfonylamino-3-[3-{4-(1,4,5,6-tetrahydropyrimidin-2-ylamino)piperidin-1-yl}-5-(trifluoromethyl)benzoylamino]propionic acid]
IC50 ([2]; immobilized human vitronectin): 96 nM
cell adhesion inhibitory activity ([2]; result in words): potent
